Experimental data published in PubChem BioAssay AID2060885 (Molecular Pharmacology Branch, DTP, NCI, 2025).

System: NCI-H23 complex spheroids with HUVEC/MSC, viability
Experiment: Anticancer human tumor NCI-H23 cell line growth inhibition [RAS];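 also: spheroids exposed to compound for 7 days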;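 as to viability, T/C: 100% = DMSO vehicle control viability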
Conditions: for IC50: curve of first compound; for viability, T/C: stronger effect = lower value
Description: RAS pathway inhibitors in Combinations in Complex Spheroids
A high-throughput screen of multi-cell type tumor spheroids was designed to identify active combinations of RAS pathway inhibitors and targeted small molecules. Complex spheroids include a stromal component modeled by human endothelial cells (HUVEC) and fibroblasts modeled by human mesenchymal stem cells (MSCs). The concentration ranges selected for each drug and investigational agent were based upon clinically achievable concentrations if the clinical Cmax of the agent was known.
Compounds. The drugs and investigational agents: abemaciclib (NSC768073), cobimetinib (NSC768068), divarasib (GDC6063, NSC841802), docetaxel (NSC628503), GDC-1971 (RLY-1971, NSC841576), gemcitabine (NSC613327), inavolisib (NSC800729), ipatasertib (NSC767898), KB-0742 (NSC834161), MRTX-1133 (NSC836407), osimertinib (NSC779217), RMC-4630 (NSC839698), RMC-6236 (NSC851965), RMC-6291 (NSC852671), Ro-3306 (NSC812927), sapanisertib (NSC764658), SN-38 (NSC673596), staurosporine (NSC755774), SY5609 (NSC837396), and tovorafenib (DAY101, NSC766906), were obtained from the National Cancer Institute (NCI) Developmental Therapeutics Program Chemical Repository. The FDA-approved anticancer drug set is available from the NCI Developmental Therapeutics Program. […] The stock solutions were prepared in dimethyl sulfoxide (DMSO, Sigma-Aldrich, St. Louis, MO, cat. D2650) at 800-fold the tested concentration and stored at -70 degrees C prior to their use. All drugs and investigational agents were tested over a range starting from a high concentration at or near the clinical Cmax and decreasing in half-log increments. If the clinical Cmax for an agent had not been determined, the highest concentration tested was 10 microM.
Cell Culture. All cells were maintained in an incubator at 37 degrees C and 5% CO2 with 95% humidity. The PDC lines were cultured according to standard operating procedures established by the NCI PDMR. All PDCs were thawed and cultured in Matrigel-coated flasks prepared with a working solution of 1X Ham's F-12 nutrient mix, without supplementation (Invitrogen, Waltham, MA, cat. 11765054), 100 U/mL penicillin-streptomycin (Invitrogen, cat. 15140122), and 2.5% Matrigel (Corning Inc., Corning, NY, cat. 354248) for the first three passages. The 362531-283-R-J2-PDC and 782815-120-R-J1-PDC lines were cultured in 6C/Colon 1B media, which includes advanced DMEM/F-12 (Thermo Fisher Scientific, cat. 12634028), 10 mM HEPES (Thermo Fisher Scientific, cat. 15630080), 1X GlutaMAX supplement (Thermo Fisher Scientific, cat. 35050061), 0.1 mg/mL primocin (InvivoGen, San Diego, CA, cat. ant-pm-2), 10% defined fetal bovine serum, heat inactivated (HyClone Laboratories Inc., Logan, UT, cat. SH30070.03HI), 50% L-WRN conditioned media (ATCC, cat. CRL-3276), 1.25 mM N-Acetyl-L-cysteine (Sigma-Aldrich, cat. A9165), 10 mM nicotinamide (Sigma-Aldrich, cat. N0636), 1X B-27 supplement (Thermo Fisher Scientific, cat. 17504044), 1X N-2 supplement (Thermo Fisher Scientific, cat. 17502048), 50 ng/mL human EGF (Thermo Fisher Scientific, cat. PHG0311), and 10 microM Y-27632 dihydrochloride (Tocris Bioscience, cat. 1254). The K12877-001-R-J1-PDC line was cultured in 6I media, which includes all 6C/Colon 1B media plus 10 ng/mL human FGF-10 (PeproTech, cat. 100-26), 1 ng/mL human FGF-2 (PeproTech, cat. 100-18B), 1 µM prostaglandin E2 (Tocris Bioscience, cat. 2296), […] hydrocortisone (Sigma-Aldrich, cat. H4001), and […] bovine insulin (Sigma-Aldrich, cat. I6634). The K86415-001-R-J1-PDC line was cultured in 6D media, which includes all 6C/Colon 1B media components minus the L-WRN conditioned media. The 485176-168-R4-J1-PDC was cultured in PANC media, which includes all 6C/Colon 1B media plus 100 ng/mL human FGF-10 (PeproTech, cat. 100-26), 500 nM SB-431542 (Selleckchem, cat. S1067), and 10 nM gastrin (Tocris Bioscience, cat. 3006). […]

Question: Which IC50 (second compound 0.0316 µM) does the source give for `O=C(c1ccc(F)c(F)c1Nc1ccc(I)cc1F)N1CC(O)([C@@H]2CCCCN2)C1` + C#Cc1c(F)ccc2cc(O)cc(-c3ncc4c(N5CC6CCC(C5)N6)nc(OCC56CCCN5CC(F)C6)nc4c3F)c12 here?
Answer: Its IC50 is 82.6 nM.

Question: What about the IC50 (second compound 0.1 µM) of the same molecule?
Answer: The IC50 was 77.3 nM.

Question: What about the IC50 (second compound 0.316 µM) of the same molecule?
Answer: The IC50 was 73.2 nM.

Question: And the IC50 (second compound 1 µM)?
Answer: The IC50 was 68.3 nM.

Question: And the IC50 (second compound 3.16 µM)?
Answer: Its IC50 is 15.4 nM.

Question: What about the IC50 (second compound 10 µM) of the same molecule?
Answer: The IC50 was under 3.16 nM.

Question: And the viability, T/C (second compound 0.0316 µM, first compound 0.00316 µM)?
Answer: The viability, T/C was 108%.

Question: What about the viability, T/C (second compound 0.0316 µM, first compound 0.01 µM) of the same molecule?
Answer: Its viability, T/C is 105%.

Question: And the viability, T/C (second compound 0.0316 µM, first compound 0.0316 µM)?
Answer: Its viability, T/C is 70.8%.

Question: What about the viability, T/C (second compound 0.0316 µM, first compound 0.1 µM) of the same molecule?
Answer: The viability, T/C was 44.1%.

Question: What about the viability, T/C (second compound 0.0316 µM, first compound 0.316 µM) of the same molecule?
Answer: The viability, T/C was 35.9%.

Question: What about the viability, T/C (second compound 0.0316 µM, first compound 1 µM) of the same molecule?
Answer: Its viability, T/C is 19.1%.

Question: And the viability, T/C (second compound 0.1 µM, first compound 0.00316 µM)?
Answer: The viability, T/C was 103%.

Question: What about the viability, T/C (second compound 0.1 µM, first compound 0.01 µM) of the same molecule?
Answer: The viability, T/C was 103%.

Question: What about the viability, T/C (second compound 0.1 µM, first compound 0.0316 µM) of the same molecule?
Answer: The viability, T/C was 65.1%.

Question: And the viability, T/C (second compound 0.1 µM, first compound 0.1 µM)?
Answer: Its viability, T/C is 47.1%.

Question: What about the viability, T/C (second compound 0.1 µM, first compound 0.316 µM) of the same molecule?
Answer: Its viability, T/C is 30.9%.

Question: And the viability, T/C (second compound 0.1 µM, first compound 1 µM)?
Answer: The viability, T/C was 21.6%.

Question: And the viability, T/C (second compound 0.316 µM, first compound 0.00316 µM)?
Answer: Its viability, T/C is 99.8%.

Question: And the viability, T/C (second compound 0.316 µM, first compound 0.01 µM)?
Answer: Its viability, T/C is 112%.

Question: And the viability, T/C (second compound 0.316 µM, first compound 0.0316 µM)?
Answer: Its viability, T/C is 72.6%.

Question: What about the viability, T/C (second compound 0.316 µM, first compound 0.1 µM) of the same molecule?
Answer: The viability, T/C was 42.5%.

Question: What about the viability, T/C (second compound 0.316 µM, first compound 0.316 µM) of the same molecule?
Answer: The viability, T/C was 31.1%.

Question: And the viability, T/C (second compound 0.316 µM, first compound 1 µM)?
Answer: The viability, T/C was 20.4%.

Question: And the viability, T/C (second compound 1 µM, first compound 0.00316 µM)?
Answer: Its viability, T/C is 91.2%.

Question: What about the viability, T/C (second compound 1 µM, first compound 0.01 µM) of the same molecule?
Answer: The viability, T/C was 95.8%.

Question: What about the viability, T/C (second compound 1 µM, first compound 0.0316 µM) of the same molecule?
Answer: Its viability, T/C is 60.4%.

Question: What about the viability, T/C (second compound 1 µM, first compound 0.1 µM) of the same molecule?
Answer: The viability, T/C was 43.8%.

Question: What about the viability, T/C (second compound 1 µM, first compound 0.316 µM) of the same molecule?
Answer: The viability, T/C was 34.4%.

Question: What about the viability, T/C (second compound 1 µM, first compound 1 µM) of the same molecule?
Answer: Its viability, T/C is 21.1%.

Question: What about the viability, T/C (second compound 3.16 µM, first compound 0.00316 µM) of the same molecule?
Answer: Its viability, T/C is 56.3%.

Question: What about the viability, T/C (second compound 3.16 µM, first compound 0.01 µM) of the same molecule?
Answer: The viability, T/C was 58.7%.

Question: And the viability, T/C (second compound 3.16 µM, first compound 0.0316 µM)?
Answer: Its viability, T/C is 42.4%.

Question: What about the viability, T/C (second compound 3.16 µM, first compound 0.1 µM) of the same molecule?
Answer: The viability, T/C was 40%.

Question: What about the viability, T/C (second compound 3.16 µM, first compound 0.316 µM) of the same molecule?
Answer: The viability, T/C was 30.3%.

Question: What about the viability, T/C (second compound 3.16 µM, first compound 1 µM) of the same molecule?
Answer: Its viability, T/C is 17%.

Question: And the viability, T/C (second compound 10 µM, first compound 0.00316 µM)?
Answer: Its viability, T/C is 36.5%.

Question: And the viability, T/C (second compound 10 µM, first compound 0.01 µM)?
Answer: Its viability, T/C is 38.3%.

Question: And the viability, T/C (second compound 10 µM, first compound 0.0316 µM)?
Answer: The viability, T/C was 31.6%.

Question: And the viability, T/C (second compound 10 µM, first compound 0.1 µM)?
Answer: Its viability, T/C is 31.9%.

Question: What about the viability, T/C (second compound 10 µM, first compound 0.316 µM) of the same molecule?
Answer: Its viability, T/C is 22.1%.

Question: What about the viability, T/C (second compound 10 µM, first compound 1 µM) of the same molecule?
Answer: Its viability, T/C is 12.3%.
